# Reference: patent US6730700B2, “3,4,5,-trisubstituted aryl nitrone compounds and pharmaceutical compositions containing the same” (Renovis, Inc., priority 1998, dated 2004)
# What was measured:
# [1] = target: T1, COX-1 derived from ram seminal vesicles (Ovis aries, UniProt P05979); experiment: Inhibition of COX-1 (arachidonic acid incubation, PGE2 formation); conditions: 300 μM; PGE2 formation by spectrophotometric quantitation of malondialdehyde
# T1 sequence (P05979 25-600): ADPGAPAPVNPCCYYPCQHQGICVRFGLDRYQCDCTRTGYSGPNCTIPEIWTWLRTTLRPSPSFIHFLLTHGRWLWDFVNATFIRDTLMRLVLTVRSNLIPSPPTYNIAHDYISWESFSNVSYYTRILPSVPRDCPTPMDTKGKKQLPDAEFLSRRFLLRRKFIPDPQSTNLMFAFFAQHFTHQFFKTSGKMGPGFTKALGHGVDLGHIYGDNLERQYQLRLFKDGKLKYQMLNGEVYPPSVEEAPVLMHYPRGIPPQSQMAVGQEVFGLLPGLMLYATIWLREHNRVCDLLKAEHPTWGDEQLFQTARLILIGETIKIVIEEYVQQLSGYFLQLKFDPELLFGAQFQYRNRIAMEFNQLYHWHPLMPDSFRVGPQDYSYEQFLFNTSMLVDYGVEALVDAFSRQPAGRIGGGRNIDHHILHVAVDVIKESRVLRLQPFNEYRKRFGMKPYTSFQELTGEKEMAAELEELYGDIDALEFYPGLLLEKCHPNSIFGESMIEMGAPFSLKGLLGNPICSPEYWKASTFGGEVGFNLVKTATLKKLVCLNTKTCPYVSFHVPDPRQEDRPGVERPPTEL
# Description: (§1) The inhibition of COX-1 was measured by incubating arachidonic acid with COX-1 derived from ram seminal vesicles. The inhibition of COX-2 was measured by incubation of arachidonic acid with COX-2 derived from sheep placenta. […] In each assay, the formation of prostaglandin E2 (PGE2) was measured by spectrophotometric quantitation of malondialdehyde.
# [2] = target: T2, COX-2 derived from sheep placenta (Ovis aries, UniProt P79208); experiment: Inhibition of COX-2 (arachidonic acid incubation, PGE2 formation); conditions: 300 μM; PGE2 formation by spectrophotometric quantitation of malondialdehyde
# T2 sequence (P79208 17-603): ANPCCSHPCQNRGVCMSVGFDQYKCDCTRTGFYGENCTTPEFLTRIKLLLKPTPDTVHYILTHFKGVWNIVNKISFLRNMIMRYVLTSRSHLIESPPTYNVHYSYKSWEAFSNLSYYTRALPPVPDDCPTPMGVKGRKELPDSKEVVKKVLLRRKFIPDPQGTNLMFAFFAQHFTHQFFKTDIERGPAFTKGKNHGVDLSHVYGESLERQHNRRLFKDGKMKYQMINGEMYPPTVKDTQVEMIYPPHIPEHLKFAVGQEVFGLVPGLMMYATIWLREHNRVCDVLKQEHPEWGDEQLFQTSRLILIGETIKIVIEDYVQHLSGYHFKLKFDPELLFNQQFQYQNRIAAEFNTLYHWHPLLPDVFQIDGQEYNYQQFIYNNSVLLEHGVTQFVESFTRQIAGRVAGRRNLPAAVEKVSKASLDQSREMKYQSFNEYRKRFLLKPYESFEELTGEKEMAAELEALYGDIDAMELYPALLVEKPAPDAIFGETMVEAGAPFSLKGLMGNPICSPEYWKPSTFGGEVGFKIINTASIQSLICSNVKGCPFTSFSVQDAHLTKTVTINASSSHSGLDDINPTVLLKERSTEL
# Description: as §1
# [3] = tested on: adjuvant-induced footpad edema in rats; experiment: Adjuvant assay (adjuvant-induced footpad edema); format: in vivo, rat; conditions: Male Lewis rats, 3 mg/kg po, dosing day 14 to day 21 post-adjuvant
# Description: See, for example, […], “Rat Adjuvant Arthritis A Model of Chronic Inflammation,” Pharmocoloigal Methods in the Control of Inflammation, 363-380 (1989) and references cited therein In this assay, Male Lewis rats weighing between 180-220 g were lightly anesthetized with an ip injection of 30 mg/kg of sodium pentobarbital (50 mg/mL). Desiccated Mycobacterium butyrium (Difco, 20 mg/mL) suspended in mineral oil was injected (50 μL) at both sides of the base of the tail under the skin A line was tattooed on both rear paws at 5 mm above the angle of the ankle The paw volumes, under the line, were measured by volume displacement using a plethysmometer (Ugo Basile) at the day of adjuvant injection (day 0) and on day 14 On day 14, animals with paw volumes equal to the mean of paw volumes ±SD were randomized into treatment groups. Rats which fell outside ±1 SD were not used in the experiment.
Compound,inhibition of COX-1 [1],inhibition of COX-2 [2],paw volume as compared to vehicle controls [3]
"CC(=O)Oc1c(C(C)(C)C)cc(/C=[N+](\[O-])C(C)(C)C)cc1C(C)(C)C [Example 1, α-(4-Acetoxy-3,5-di-tert-butylphenyl)-N-tert-butylnitrone]",did not significantly affect,did not significantly affect,
COc1ccc2c(c1)c(CC(=O)O)c(C)n2C(=O)c1ccc(Cl)cc1 [indomethacin],,,significantly reduced
